Data on three molecules can be found in US8097440B1, “Engineered microorganisms capable of producing target compounds under anaerobic conditions” (Gevo, Inc., priority 2008, dated 2012).

Data set [1] has as its target T1, E. coli KARI Ec_IlvC variant Ec_IlvC^S78D-his6 (S78D), SEQ ID NO: 17 (Escherichia coli, UniProt P05793, S78D).
T1 sequence (P05793 with tags, fused parts or gaps S78D): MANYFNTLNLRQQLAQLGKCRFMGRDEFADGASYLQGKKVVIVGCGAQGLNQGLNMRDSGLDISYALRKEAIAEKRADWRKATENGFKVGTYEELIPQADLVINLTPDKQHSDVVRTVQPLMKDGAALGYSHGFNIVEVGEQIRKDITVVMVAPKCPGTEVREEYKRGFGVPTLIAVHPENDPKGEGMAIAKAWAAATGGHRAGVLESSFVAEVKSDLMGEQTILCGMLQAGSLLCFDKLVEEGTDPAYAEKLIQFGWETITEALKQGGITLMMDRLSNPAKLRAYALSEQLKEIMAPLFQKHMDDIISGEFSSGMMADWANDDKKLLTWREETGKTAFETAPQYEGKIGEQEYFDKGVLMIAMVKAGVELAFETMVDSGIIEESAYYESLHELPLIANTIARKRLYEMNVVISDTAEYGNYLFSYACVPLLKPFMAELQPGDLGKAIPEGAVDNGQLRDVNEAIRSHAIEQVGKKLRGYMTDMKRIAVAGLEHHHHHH
In words: KARI cuvette assay, purified Ec_IlvC^S78D-his6. The class given is biochemical. The note with it: from 1075 μM to 130 μM. As to the method:
(§1) KARI cuvette assay: KARI activity was assayed kinetically by monitoring the decrease in NAD(P)H concentration by measuring the absorbance at 340 nm. A reaction buffer was prepared containing 250 mM potassium phosphate pH 7, 1 mM DTT and 10 mM MgCl2. Cell pellets were resuspended (0.25 g wet weight/mL buffer) in 250 mM potassium phosphate (KPi) buffer containing 1 mM DTT and 10 mM MgCl2. The resuspended cells were lysed by sonication for 1 min with a 50% duty cycle and pelleted at 11000×g and 4° C. for 15 min. A reaction mixture consisting of 910 μl reaction buffer, 50 μl acetolactate, and 20 μl lysate was prepared in a cuvette. The reaction was initiated by addition of 20 μL of 10 mM NAD(P)H. A substrate free control was conducted using reaction buffer without the addition of acetolactate.
(§2) Purification of KARI: Cell pellets used for purification were resuspended in purification buffer A (20 mM Tris, 20 mM imidazol, 100 mM NaCl, 10 mM MgCl2, pH 7.4). KARI was purified by IMAC (Immobilized metal affinity chromatography) over a 1 ml Histrap High Performance (histrap HP) column pre-charged with Nickel (GE Healthcare) using an Akta FPLC system (GE Healthcare). […]

For data set [2], the target named is T2, Escherichia coli KARI (ketol-acid reductoisomerase) Ec_IlvC^his6, wild type IlvC (SEQ ID NO: 13) with his6-tag, SEQ ID NO: 15 (Escherichia coli, UniProt P05793).
T2 sequence (P05793 with tags, fused parts or gaps): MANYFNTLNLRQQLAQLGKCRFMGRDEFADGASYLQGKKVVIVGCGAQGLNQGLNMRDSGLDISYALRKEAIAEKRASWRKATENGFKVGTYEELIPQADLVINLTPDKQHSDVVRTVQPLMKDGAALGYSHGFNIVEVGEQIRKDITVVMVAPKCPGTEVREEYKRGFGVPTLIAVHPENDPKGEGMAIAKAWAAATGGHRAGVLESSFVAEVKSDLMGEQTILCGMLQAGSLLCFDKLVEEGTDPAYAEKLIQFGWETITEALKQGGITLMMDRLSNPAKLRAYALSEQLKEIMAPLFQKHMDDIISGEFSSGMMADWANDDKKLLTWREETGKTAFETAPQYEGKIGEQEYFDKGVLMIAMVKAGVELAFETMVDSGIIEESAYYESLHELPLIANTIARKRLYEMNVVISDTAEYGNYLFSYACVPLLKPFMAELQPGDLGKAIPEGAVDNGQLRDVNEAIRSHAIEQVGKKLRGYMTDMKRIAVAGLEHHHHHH
Put plainly: KARI cuvette assay, purified Ec_IlvC^his6 (parent / wild type). The note with it: purified; acetolactate as substrate. The data set is classed as biochemical, E. coli. As to the method:
as §1, with “The reaction was initiated by addition of 20 μL of 10 mM NAD(P)H. A substrate free control was conducted using reaction buffer without the addition of acetolactate.” left out
Only 20% of the enzymes of the recombination library were active on NADH. After screening 1,000 clones using the NADH depletion assay at 340 nm, 26 KARI variants were selected for a rescreen by the high-throughput assay described in Example 14 and eight thereof were expressed in 25 ml LBamp medium in shake flasks according to the protocol for cell growth and protein expression in shake flasks as described in Example 14, purified according to the protocol for purification of KARI enzymes as described in Example 14, and NAD(P)H depletion at 340 nm was measured again. […] The KM values of variants Ec_llvC^2H10-his6 and Ec_llvC^6E6-his6 were measured and the catalytic efficiencies were calculated.

Data set [3] deals with Lactococcus lactis alcohol dehydrogenase Ll_AdhA, SEQ ID NO: 67. The following applies: NADPH as cofactor; cited from earlier work.
The target in data set [4] is T3, E. coli KARI Ec_IlvC variant Ec_IlvC^P2D1-A1-his6 (Ec_IlvC^P2D1-his6 with K433E), SEQ ID NO: 42 (Escherichia coli, UniProt P05793, A71S/D146G/G185R/K433E/Q110V/R76D/S78D).
T3 sequence (P05793 with tags, fused parts or gaps A71S/R76D/S78D/Q110V/D146G/G185R/K433E): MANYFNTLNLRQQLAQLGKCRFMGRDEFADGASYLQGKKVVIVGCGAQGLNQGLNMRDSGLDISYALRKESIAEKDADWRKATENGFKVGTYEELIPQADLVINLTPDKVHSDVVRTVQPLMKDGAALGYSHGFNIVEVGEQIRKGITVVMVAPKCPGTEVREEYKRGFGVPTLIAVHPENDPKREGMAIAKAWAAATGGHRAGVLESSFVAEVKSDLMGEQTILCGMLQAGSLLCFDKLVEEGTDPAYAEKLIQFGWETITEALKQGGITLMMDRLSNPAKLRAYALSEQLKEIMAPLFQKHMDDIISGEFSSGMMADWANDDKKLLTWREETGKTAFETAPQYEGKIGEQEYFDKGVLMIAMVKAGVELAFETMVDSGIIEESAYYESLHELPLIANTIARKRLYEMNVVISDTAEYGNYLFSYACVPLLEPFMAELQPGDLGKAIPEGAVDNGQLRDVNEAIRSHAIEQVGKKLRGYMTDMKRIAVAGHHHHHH
Put plainly: KARI assay, purified Ec_IlvC^P2D1-A1-his6. The class given is biochemical. The following applies: expressed in yeast GEVO1186, purified. As to the method: as §1, §2

Substrate in data set [5]: NC(=O)C1=CN([C@@H]2O[C@H](COP(=O)(O)OP(=O)(O)OC[C@H]3O[C@@H](n4cnc5c(N)ncnc54)[C@H](O)[C@@H]3O)[C@@H](O)[C@H]2O)C=CC1
In words: KARI cuvette assay, purified Ec_IlvC^Q110A-his6. The data set is classed as biochemical, E. coli. How it is done: as §1, §2

Substrate in data set [6]: NC(=O)C1=CN([C@@H]2O[C@H](COP(=O)(O)OP(=O)(O)OC[C@H]3O[C@@H](n4cnc5c(N)ncnc54)[C@H](OP(=O)(O)O)[C@@H]3O)[C@@H](O)[C@H]2O)C=CC1
Put plainly: KARI cuvette assay, purified Ec_IlvC^S78D-his6. The class given is biochemical, E. coli. The note with it: other: purified. As to the method:
as §1
(§3) Purification of KARI: Cell pellets used for purification were resuspended in purification buffer A (20 mM Tris, 20 mM imidazol, 100 mM NaCl, 10 mM MgCl2, pH 7.4). KARI was purified by IMAC (Immobilized metal affinity chromatography) over a 1 ml Histrap High Performance (histrap HP) column pre-charged with Nickel (GE Healthcare) using an Akta FPLC system (GE Healthcare). The column was equilibrated with four column volumes (cv) of buffer A. After injecting the crude extract, the column was washed with buffer A for 2 cv, followed by a wash step with a mixture of 10% elution buffer B (20 mM Tris, 300 mM imidazol, 100 mM NaCl, 10 mM MgCl2, pH 7.4) for 5 cv. KARI variants were eluted at 40% buffer B and stored at 4° C.
(§4) Five individual site saturation libraries were generated and electro-competent E. coli BL21(DE3) cells were transformed with the desalted ligation mixtures. 88 clones of each library were screened for NAD(P)H depletion at 340 nm in microplates. Clones with an improved NADH/NADPH consumption ratio while maintaining or increasing their NADH activity were chosen for a rescreen. Variants that passed the rescreen were sequenced, expressed in shake flasks, purified, and characterized. […]

Substrate in data set [7]: NC(=O)C1=CN([C@@H]2O[C@H](COP(=O)(O)OP(=O)(O)OC[C@H]3O[C@@H](n4cnc5c(N)ncnc54)[C@H](O)[C@@H]3O)[C@@H](O)[C@H]2O)C=CC1
Put plainly: KARI cuvette assay, purified Ec_IlvC^S78D-his6. The class given is biochemical, E. coli. As to the method:
as §1, §3, §4

The mark [8] stands for this setting: other: purified, acetolactate as substrate.

For the molecule `NC(=O)C1=CN([C@@H]2O[C@H](COP(=O)(O)OP(=O)(O)OC[C@H]3O[C@@H](n4cnc5c(N)ncnc54)[C@H](OP(=O)(O)O)[C@@H]3O)[C@@H](O)[C@H]2O)C=CC1` [NADPH, nicotinamide adenine dinucleotide phosphate], in data set [1], the “decrease of KM value compared to wild-type” value is reported as 16 fold. Also, the results for the kcat/KM in data set [2] and in data set [4] were 87,300 M^−1 * s^−1 and less than 377 M^−1 * S^−1, respectively. In addition, the “activity when tested with NADPH as a cofactor” value in data set [3] is listed as “^adid not show any detectably activity when tested with NADPH as a cofactor”. Besides, in data set [4], the Km (in general, the substrate concentration at which the rate is half of its maximum) was more than 1430 µM.

B1: E. coli KARI Ec_IlvC variant Ec_IlvC^Q110A-his6 (Q110A), SEQ ID NO: 21 (Escherichia coli K-12; Q110A) (protein)
chain: MANYFNTLNLRQQLAQLGKCRFMGRDEFADGASYLQGKKVVIVGCGAQGLNQGLNMRDSGLDISYALRKEAIAEKRASWRKATENGFKVGTYEELIPQADLVINLTPDKAHSDVVRTVQPLMKDGAALGYSHGFNIVEVGEQIRKDITVVMVAPKCPGTEVREEYKRGFGVPTLIAVHPENDPKGEGMAIAKAWAAATGGHRAGVLESSFVAEVKSDLMGEQTILCGMLQAGSLLCFDKLVEEGTDPAYAEKLIQFGWETITEALKQGGITLMMDRLSNPAKLRAYALSEQLKEIMAPLFQKHMDDIISGEFSSGMMADWANDDKKLLTWREETGKTAFETAPQYEGKIGEQEYFDKGVLMIAMVKAGVELAFETMVDSGIIEESAYYESLHELPLIANTIARKRLYEMNVVISDTAEYGNYLFSYACVPLLKPFMAELQPGDLGKAIPEGAVDNGQLRDVNEAIRSHAIEQVGKKLRGYMTDMKRIAVAGLEHHHHH
In the case of B1, the results for the catalytic efficiency (kcat/Km) in data set [5] (setting [8]) and in data set [5] (with NADH) were 11100 M⁻¹ s⁻¹ and 302000 M⁻¹ s⁻¹, respectively.

B2: E. coli KARI Ec_IlvC variant Ec_IlvC^S78D-his6 (S78D), SEQ ID NO: 17 (Escherichia coli K-12; S78D) (protein)
chain: MANYFNTLNLRQQLAQLGKCRFMGRDEFADGASYLQGKKVVIVGCGAQGLNQGLNMRDSGLDISYALRKEAIAEKRADWRKATENGFKVGTYEELIPQADLVINLTPDKQHSDVVRTVQPLMKDGAALGYSHGFNIVEVGEQIRKDITVVMVAPKCPGTEVREEYKRGFGVPTLIAVHPENDPKGEGMAIAKAWAAATGGHRAGVLESSFVAEVKSDLMGEQTILCGMLQAGSLLCFDKLVEEGTDPAYAEKLIQFGWETITEALKQGGITLMMDRLSNPAKLRAYALSEQLKEIMAPLFQKHMDDIISGEFSSGMMADWANDDKKLLTWREETGKTAFETAPQYEGKIGEQEYFDKGVLMIAMVKAGVELAFETMVDSGIIEESAYYESLHELPLIANTIARKRLYEMNVVISDTAEYGNYLFSYACVPLLKPFMAELQPGDLGKAIPEGAVDNGQLRDVNEAIRSHAIEQVGKKLRGYMTDMKRIAVAGLEHHHHHH
Consider B2, for which the Km in data set [6] is 130 µM. For the same molecule, the specificity constant (kcat/Km) – broadly, the turnover number divided by the Michaelis constant – is 27,600 M^−1 * s^−1 in data set [7] (setting [8]) and 3770 M⁻¹ s⁻¹ in data set [7] (with NADH).
